Patent publication US12404239B2, “Modulators of BCL6 as ligand directed degraders” (Celgene Corporation, priority 2022, dated 2025)

Target: T1, BCL6 (Homo sapiens, UniProt P41182)
T1 construct: HiBiT-tag knocked into endogenous BCL6 locus using CRISPR; endogenous in cells; host or cells: DHL-4_BCL6_HiBiT cells (CRISPR knock-in)
Experiment: BCL6_HiBiT degradation assay (2 h)
Type: cell-based
Conditions: DHL-4_BCL6_HiBiT cells, read-out: YCon (% remaining maximal effect)
In short: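 DHL-4 cells carrying CRISPR HiBiT knock-in at endogenous BCL6, treated 2 h at 37 °C with 10-point 3-fold dilutions from 1-10 μM. BCL6 level read by Nano-Glo HiBiT lytic luminescence normalized to DMSO; four-parameter fit gives degradation EC50 and Yconstant (% remaining at maximal effect).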

Structure (SMILES) | Percent BCL6 remaining at maximal degradation (Ycon) [%]
CN1C(=O)Cc2cc(Nc3nc(N4CCC(Nc5ccc6c(C7CCC(=O)NC7=O)nn(C)c6c5)C(F)(F)C4)ncc3Cl)ccc21 (stereo not shown) [Example 64, 3-(6-((1-(5-Chloro-4-((1-methyl-2-oxoindolin-5-yl)amino)pyrimidin-2-yl)-3,3-difluoropiperidin-4-yl)amino)-1-methyl-1H-indazol-3-yl)piperidine-2,6-dione] | > 60
CN1C(=O)Cc2cc(Nc3nc(N4CCC(Nc5ccc6c(N7CCC(=O)NC7=O)nn(C)c6c5)C(F)(F)C4)ncc3Cl)ccc21 (stereo not shown) [Example 65, 1-(6-((1-(5-chloro-4-((1-methyl-2-oxoindolin-5-yl)amino)pyrimidin-2-yl)-3,3-difluoropiperidin-4-yl)amino)-1-methyl-1H-indazol-3-yl)dihydropyrimidine-2,4(1H,3H)-dione] | > 60
CN1C(=O)Cc2cc(Nc3nc(N4CC[C@@H](Nc5ccc6c(C7CCC(=O)NC7=O)nn(C)c6c5)C(F)(F)C4)ncc3Cl)ccc21 (stereo partly drawn) [Example 66, 3-(6-(((R)-1-(5-chloro-4-((1-methyl-2-oxoindolin-5-yl)amino)pyrimidin-2-yl)-3,3-difluoropiperidin-4-yl)amino)-1-methyl-1H-indazol-3-yl)piperidine-2,6-dione] | > 60
CN1C(=O)Cc2cc(Nc3nc(N4CC[C@H](Nc5ccc6c(C7CCC(=O)NC7=O)nn(C)c6c5)C(F)(F)C4)ncc3Cl)ccc21 (stereo partly drawn) [Example 67, 3-(6-(((S)-1-(5-chloro-4-((1-methyl-2-oxoindolin-5-yl)amino)pyrimidin-2-yl)-3,3-difluoropiperidin-4-yl)amino)-1-methyl-1H-indazol-3-yl)piperidine-2,6-dione] | 20 to 60
CN1C(=O)Cc2cc(Nc3nc(NC4CCN(c5ccc6c(C7CCC(=O)NC7=O)nn(C)c6c5)CC4(F)F)ncc3Cl)ccc21 (stereo not shown) [Example 68, 3-(6-(4-((5-chloro-4-((1-methyl-2-oxoindolin-5-yl)amino)pyrimidin-2-yl)amino)-3,3-difluoropiperidin-1-yl)-1-methyl-1H-indazol-3-yl)piperidine-2,6-dione] | 20 to 60
CCN1C(=O)Cc2cc(Nc3nc(N4CC[C@@H](Nc5ccc6c(C7CCC(=O)NC7=O)nn(C)c6c5)[C@H](C)C4)ncc3Cl)ccc21 (stereo partly drawn) [Example 69, 3-(6-(((3R,4R)-1-(5-chloro-4-((1-ethyl-2-oxoindolin-5-yl)amino)pyrimidin-2-yl)-3-methylpiperidin-4-yl)amino)-1-methyl-1H-indazol-3-yl)piperidine-2,6-dione] | < 20
C[C@@H]1CN(c2ncc(Cl)c(Nc3ccc4c(c3)CC(=O)N4C)n2)CC[C@H]1Nc1ccc2c(C3CCC(=O)NC3=O)nn(C)c2c1 (stereo partly drawn) [Example 70, 3-(6-(((3R,4R)-1-(5-chloro-4-((1-methyl-2-oxoindolin-5-yl)amino)pyrimidin-2-yl)-3-methylpiperidin-4-yl)amino)-1-methyl-1H-indazol-3-yl)piperidine-2,6-dione] | < 20
C[C@@H]1CN(c2ncc(Cl)c(Nc3ccc4c(c3)CC(=O)N4C)n2)CC[C@H]1N(C)c1ccc2c(C3CCC(=O)NC3=O)nn(C)c2c1 (stereo partly drawn) [Example 73, 3-(6-(((3R,4R)-1-(5-chloro-4-((1-methyl-2-oxoindolin-5-yl)amino)pyrimidin-2-yl)-3-methylpiperidin-4-yl)(methyl)amino)-1-methyl-1H-indazol-3-yl)piperidine-2,6-dione] | < 20
C[C@@H]1CN(c2ncc(Cl)c(Nc3cnc4c(c3)CC(=O)N4C)n2)CC[C@H]1Nc1ccc2c(C3CCC(=O)NC3=O)nn(C)c2c1 (stereo partly drawn) [Example 74, 3-(6-(((3R,4R)-1-(5-chloro-4-((1-methyl-2-oxo-2,3-dihydro-1H-pyrrolo[2,3-b]pyridin-5-yl)amino)pyrimidin-2-yl)-3-methylpiperidin-4-yl)amino)-1-methyl-1H-indazol-3-yl)piperidine-2,6-dione] | 20 to 60
COCCN1C(=O)Cc2cc(Nc3nc(N4CC[C@@H](Nc5ccc6c(C7CCC(=O)NC7=O)nn(C)c6c5)[C@H](C)C4)ncc3Cl)ccc21 (stereo partly drawn) [Example 75, 3-(6-(((3R,4R)-1-(5-chloro-4-((1-(2-methoxyethyl)-2-oxoindolin-5-yl)amino)pyrimidin-2-yl)-3-methylpiperidin-4-yl)amino)-1-methyl-1H-indazol-3-yl)piperidine-2,6-dione] | < 20
C[C@@H]1CN(c2ncc(Cl)c(Nc3ccc4c(c3)CC(=O)N4C)n2)C[C@@H](C)N1c1ccc2c(C3CCC(=O)NC3=O)nn(C)c2c1 (stereo partly drawn) [Example 78, 3-(6-((2R,6R)-4-(5-chloro-4-((1-methyl-2-oxoindolin-5-yl)amino)pyrimidin-2-yl)-2,6-dimethylpiperazin-1-yl)-1-methyl-1H-indazol-3-yl)piperidine-2,6-dione] | 20 to 60
C[C@H]1C[C@H](Nc2ccc3c(C4CCC(=O)NC4=O)nn(C)c3c2)CCN1c1ncc(Cl)c(Nc2ccc3c(c2)CC(=O)N3C)n1 (stereo partly drawn) [Example 81, 3-(6-(((2S,4R)-1-(5-chloro-4-((1-methyl-2-oxoindolin-5-yl)amino)pyrimidin-2-yl)-2-methylpiperidin-4-yl)amino)-1-methyl-1H-indazol-3-yl)piperidine-2,6-dione] | < 20
C[C@H]1C[C@H](N(C)c2ccc3c(C4CCC(=O)NC4=O)nn(C)c3c2)CCN1c1ncc(Cl)c(Nc2ccc3c(c2)CC(=O)N3C)n1 (stereo partly drawn) [Example 84, 3-(6-(((2S,4R)-1-(5-chloro-4-((1-methyl-2-oxoindolin-5-yl)amino)pyrimidin-2-yl)-2-methylpiperidin-4-yl)(methyl)amino)-1-methyl-1H-indazol-3-yl)piperidine-2,6-dione] | > 60
C[C@@H]1CN(c2ncc(Cl)c(Nc3ccc4c(c3)CC(=O)N4C)n2)CC[C@H]1Nc1ccc2c(C3(C)CCC(=O)NC3=O)nn(C)c2c1 (stereo partly drawn) [Example 85, 3-(6-(((3R,4R)-1-(5-chloro-4-((1-methyl-2-oxoindolin-5-yl)amino)pyrimidin-2-yl)-3-methylpiperidin-4-yl)amino)-1-methyl-1H-indazol-3-yl)-3-methylpiperidine-2,6-dione] | < 20
C[C@@H]1CN(c2ncc(Cl)c(Nc3ccc4c(c3)CC(=O)N4C)n2)CC[C@H]1Nc1cc2c(cn1)c(C1CCC(=O)NC1=O)nn2C (stereo partly drawn) [Example 86, 3-(6-(((3R,4R)-1-(5-chloro-4-((1-methyl-2-oxoindolin-5-yl)amino)pyrimidin-2-yl)-3-methylpiperidin-4-yl)amino)-1-methyl-1H-pyrazolo[4,3-c]pyridin-3-yl)piperidine-2,6-dione] | < 20
CCN1C(=O)Cc2cc(Nc3nc(N4CCC(Nc5ccc6c(C7CCC(=O)NC7=O)nn(C)c6c5)CC4)ncc3Cl)ccc21 (stereo not shown) [Example 89, 3-(6-((1-(5-chloro-4-((1-ethyl-2-oxoindolin-5-yl)amino)pyrimidin-2-yl)piperidin-4-yl)amino)-1-methyl-1H-indazol-3-yl)piperidine-2,6-dione] | > 60
C[C@@H]1CN(c2ncc(Cl)c(Nc3cc4c(cc3F)N(C)C(=O)C4)n2)CC[C@H]1Nc1ccc2c(C3CCC(=O)NC3=O)nn(C)c2c1 (stereo partly drawn) [Example 92, 3-(6-(((3R,4R)-1-(5-chloro-4-((6-fluoro-1-methyl-2-oxoindolin-5-yl)amino)pyrimidin-2-yl)-3-methylpiperidin-4-yl)amino)-1-methyl-1H-indazol-3-yl)piperidine-2,6-dione] | < 20
C[C@@H]1CN(c2ncc(Cl)c(Nc3cc(F)c4c(c3)CC(=O)N4C)n2)CC[C@H]1Nc1ccc2c(C3CCC(=O)NC3=O)nn(C)c2c1 (stereo partly drawn) [Example 95, 3-(6-(((3R,4R)-1-(5-chloro-4-((7-fluoro-1-methyl-2-oxoindolin-5-yl)amino)pyrimidin-2-yl)-3-methylpiperidin-4-yl)amino)-1-methyl-1H-indazol-3-yl)piperidine-2,6-dione] | < 20
C[C@@H]1CN(c2ncc(Cl)c(Nc3ccc4c(c3F)CC(=O)N4C)n2)CC[C@H]1Nc1ccc2c(C3CCC(=O)NC3=O)nn(C)c2c1 (stereo partly drawn) [Example 98, 3-(6-(((3R,4R)-1-(5-chloro-4-((4-fluoro-1-methyl-2-oxoindolin-5-yl)amino)pyrimidin-2-yl)-3-methylpiperidin-4-yl)amino)-1-methyl-1H-indazol-3-yl)piperidine-2,6-dione] | < 20
C[C@@H]1CN(c2ncc(Cl)c(Nc3ccc4c(c3)CC(=O)N4CCN3CCOCC3)n2)CC[C@H]1Nc1ccc2c(C3CCC(=O)NC3=O)nn(C)c2c1 (stereo partly drawn) [Example 101, 3-(6-(((3R,4R)-1-(5-chloro-4-((1-(2-morpholinoethyl)-2-oxoindolin-5-yl)amino)pyrimidin-2-yl)-3-methylpiperidin-4-yl)amino)-1-methyl-1H-indazol-3-yl)piperidine-2,6-dione] | < 20
CNCCN1C(=O)Cc2cc(Nc3nc(N4CC[C@@H](Nc5ccc6c(C7CCC(=O)NC7=O)nn(C)c6c5)[C@H](C)C4)ncc3Cl)ccc21 (stereo partly drawn) [Example 104, 3-(6-(((3R,4R)-1-(5-chloro-4-((1-(2-(methylamino)ethyl)-2-oxoindolin-5-yl)amino)pyrimidin-2-yl)-3-methylpiperidin-4-yl)amino)-1-methyl-1H-indazol-3-yl)piperidine-2,6-dione] | < 20
C[C@@H]1CN(c2ncc(Cl)c(Nc3ccc4c(c3)CC(=O)N4CCC(C)(C)F)n2)CC[C@H]1Nc1ccc2c(C3CCC(=O)NC3=O)nn(C)c2c1 (stereo partly drawn) [Example 107, 3-(6-(((3R,4R)-1-(5-chloro-4-((1-(3-fluoro-3-methylbutyl)-2-oxoindolin-5-yl)amino)pyrimidin-2-yl)-3-methylpiperidin-4-yl)amino)-1-methyl-1H-indazol-3-yl)piperidine-2,6-dione] | < 20
